Data taken from patent US20240197698A1, “TREATMENT OF ACUTE ANXIETY WITH AN ALPHA-7 NICOTINIC ACETYLCHOLINE RECEPTOR MODULATOR” (Vanda Pharmaceuticals Inc., priority 2022, published 2024).

Columns and labels:
[1] = test system: subjects with substantial public speaking anxiety; experiment: Trier Social Stress Test (TSST) public speaking challenge, randomized double-blind placebo-controlled study: SUDS, CGI-C, PGI-C; type: in vivo, human; parameters: key to SUDS Mean: SUDS 0–100; 0 = no distress/totally relaxed, 100 = highest anxiety ever felt; details: for PGI-C Mean / CGI-C Mean: Post-TSST
Procedure: A multicenter, randomized, double-blind, placebo-controlled study evaluates the efficacy and safety of VQW-765 in subjects with substantial public speaking anxiety. […] The study design is illustrated in FIG. 1 and Table 2 (below). Visit 1 includes screening for eligibility. At visit 2, subjects are asked for a baseline SUDS rating and then randomized to one of two arms in a 1:1 ratio. […] VQW-765 is provided in the form of capsules that are white, opaque, hard gelatin, size 3, containing 10 mg VQW-765 and lactose monohydrate, microcrystalline cellulose, methocel, croscarmellose sodium, colloidal silicon dioxide, and magnesium stearate. Placebo capsules are provided in size and appearance identical to those containing VQW-765. Two hours later, subjects are instructed to prepare for a 5-minute speech for a mock job interview (resting phase). After 3 minutes of preparation (anticipation phase), the subject delivered the speech in front of an interview panel with two clinical staff (performance phase). SUDS rating was collected at each minute from the resting to performance phase. Eligible subjects are trained to use SUDS, a self-reported rating scale from 0 to 100, used to measure the intensity of anxiety during the TSST. A SUDS rating of “0” equals “no distress/totally relaxed” and 100 equals “highest anxiety/distress that you have ever felt.” In addition, the Liebowitz Social Anxiety Score (LSAS) is administered, and blood samples are collected for pharmacogenetic analysis. LSAS is a clinician-administered rating scale used to assess how social anxiety plays a role in daily life across a variety of situations. The LSAS is used to study outcomes in clinical trials, and includes 24 items to assess both social anxiety in situations and avoidance of those situations. Each item is rated as 0, none; 1, mild; 2, moderate; or 3, severe. The maximal score is 144. After a waiting period of about two (2) hours from administration of study medication, subjects receive a modified Trier Social Stress Test (TSST) involving a public speaking challenge. The subject is instructed to prepare for a 5-minute speech for a job interview, and is asked for a SUDS rating (resting phase). Then the subject has 3 minutes to mentally prepare. A SUDS rating is collected at each minute interval (anticipation phase). Next, the subject gives a 5-minute speech to an audience of two clinical staff members dressed in white coats and previously unknown to the subject. A SUDS rating is collected just before the speech and then at each minute during the speech (performance phase). The speech is video recorded, and the video camera is observed by the subject. […] Physiological biomarkers associated with anxiety or acute stress response, including heart rate, blood pressure, body temperature, and sweating are monitored continuously by medical devices, including an ePatch Extended Holter Device throughout the Public Speaking challenge.

[2] = test system: subjects with substantial public speaking anxiety; type: in vivo, human
[3] = Plasma concentration of VQW-765 after the TSST by LC-MS/MS; details: single oral 10 mg; for Mean plasma concentration: female subjects

Question: With `Cc1ccc(-c2ccc(O[C@H]3CN4CCC3CC4)cn2)cc1` [VQW-765, (R)-3-(6-p-tolyl-pyridin-3-yloxy)-1-aza-bicyclo[2.2.2]octane] as the molecule, how does the “SUDS Mean” value ([1]; Female (n = 82), Anticipation phase, P-value 0.0446 vs placebo) read?
Answer: 54.80

Question: And the “SUDS Mean” value ([1]; Female (n = 82), Performance phase, P-value 0.0342 vs placebo)?
Answer: 59.55

Question: And the “SUDS Mean” value ([1]; Female (n = 82), Pre-dose phase (baseline), P-value 0.2239 vs placebo)?
Answer: 34.27

Question: What about the “SUDS Mean” value ([1]; Female (n = 82), Resting phase, P-value 0.0576 vs placebo) of the same molecule?
Answer: 49.15

Question: What about the “SUDS Mean” value ([1]; Female-50% quartile of exposure (n = 38), Anticipation phase, P-value 0.0384 vs placebo) of the same molecule?
Answer: 53.07

Question: What about the “SUDS Mean” value ([1]; Female-50% quartile of exposure (n = 38), Performance phase, P-value 0.0046 vs placebo) of the same molecule?
Answer: 54.37

Question: What about the “SUDS Mean” value ([1]; Female-50% quartile of exposure (n = 38), Pre-dose phase (baseline), P-value 0.4530 vs placebo) of the same molecule?
Answer: 36.58

Question: What about the “SUDS Mean” value ([1]; Female-50% quartile of exposure (n = 38), Resting phase, P-value 0.0577 vs placebo) of the same molecule?
Answer: 47.63

Question: What about the “response on SUDS compared to placebo” value ([1]; Females, performance phase, p=0.034) of the same molecule?
Answer: larger magnitude and significant response

Question: What about the “SUDS Mean” value ([1]; ITT (n = 116), Anticipation phase, single oral 10 mg, P-value 0.0890 vs placebo) of the same molecule?
Answer: 52.96

Question: And the “SUDS Mean” value ([1]; ITT (n = 116), Performance phase, single oral 10 mg, P-value 0.1164 vs placebo)?
Answer: 58.60

Question: What about the “PGI-C Mean” value ([1]; ITT (n = 116), scale 1 to 7, P-value 0.3993 vs placebo) of the same molecule?
Answer: 3.4

Question: What about the “CGI-C Mean” value ([1]; ITT (n = 116), scale 1 to 7, P-value 0.4038 vs placebo) of the same molecule?
Answer: 3.6

Question: And the “SUDS Mean” value ([1]; ITT (n = 116), Pre-dose phase (baseline), single oral 10 mg, P-value 0.2215 vs placebo)?
Answer: 34.66

Question: What about the “SUDS Mean” value ([1]; ITT (n = 116), Resting phase, single oral 10 mg, P-value 0.1423 vs placebo) of the same molecule?
Answer: 47.76

Question: And the “SUDS Mean” value ([1]; ITT-50% quartile of exposure (n = 56), Anticipation phase, P-value 0.0472 vs placebo)?
Answer: 50.89

Question: And the “SUDS Mean” value ([1]; ITT-50% quartile of exposure (n = 56), Performance phase, P-value 0.0332 vs placebo)?
Answer: 55.36

Question: And the “SUDS Mean” value ([1]; ITT-50% quartile of exposure (n = 56), Pre-dose phase (baseline), P-value 0.3845 vs placebo)?
Answer: 35.89

Question: And the “SUDS Mean” value ([1]; ITT-50% quartile of exposure (n = 56), Resting phase, P-value 0.1059 vs placebo)?
Answer: 46.25

Question: What about the “SUDS Mean” value ([1]; ITT-LSAS ≥ 60 (n = 97), Anticipation phase, P-value 0.1535 vs placebo) of the same molecule?
Answer: 54.05

Question: What about the “SUDS Mean” value ([1]; ITT-LSAS ≥ 60 (n = 97), Performance phase, P-value 0.1664 vs placebo) of the same molecule?
Answer: 59.67

Question: And the “SUDS Mean” value ([1]; ITT-LSAS ≥ 60 (n = 97), Pre-dose phase (baseline), P-value 0.3225 vs placebo)?
Answer: 37.01

Question: And the “SUDS Mean” value ([1]; ITT-LSAS ≥ 60 (n = 97), Resting phase, P-value 0.1509 vs placebo)?
Answer: 49.28

Question: What about the “PGI-C, difference to placebo” value ([1]; ITT, p=0.399) of the same molecule?
Answer: No significant differences

Question: What about the “CGI-C, difference to placebo” value ([1]; ITT, p=0.404) of the same molecule?
Answer: No significant differences

Question: And the “intensity of anxiety as measured by the SUDS compared to placebo” value ([1]; ITT, performance phase, p=0.116)?
Answer: trend of improvement

Question: And the “performance anxiety compared to placebo” value ([1]; LSAS total score≥60 with efficacious exposures, p=0.014)?
Answer: significantly reduced

Question: What about the “performance anxiety compared to placebo” value ([1]; females, LSAS total score≥60 with efficacious exposures, p=0.004) of the same molecule?
Answer: significantly reduced

Question: What about the “SUDS compared to placebo” value ([1]; males with efficacious exposures, FIG. 5C) of the same molecule?
Answer: do not show improvement

Question: And the “SUDS rating compared to placebo” value ([1]; males, FIG. 2C)?
Answer: do not show improvement

Question: And the “SUDS rating compared to placebo” value ([1]; middle 50% of exposure, second and third quartiles, VQW-M (1.5-8 pmol/ml), p=0.033)?
Answer: significant improvement

Question: What about the “SUDS Mean” value ([1]; post-hoc, Female-Efficacious exposure (n = 46), Anticipation phase, P-value 0.0116 vs placebo) of the same molecule?
Answer: 51.38

Question: What about the “SUDS Mean” value ([1]; post-hoc, Female-Efficacious exposure (n = 46), Performance phase, P-value 0.0029 vs placebo) of the same molecule?
Answer: 54.00

Question: And the “CGI-C Mean” value ([1]; post-hoc, Female-Efficacious exposure (n = 46), P-value 0.2417 vs placebo)?
Answer: 3.4

Question: What about the “PGI-C Mean” value ([1]; post-hoc, Female-Efficacious exposure (n = 46), P-value 0.4655 vs placebo) of the same molecule?
Answer: 3.4

Question: And the “SUDS Mean” value ([1]; post-hoc, Female-Efficacious exposure (n = 46), Pre-dose phase (baseline), P-value 0.4267 vs placebo)?
Answer: 36.30

Question: And the “SUDS Mean” value ([1]; post-hoc, Female-Efficacious exposure (n = 46), Resting phase, P-value 0.0282 vs placebo)?
Answer: 46.52

Question: And the “SUDS Mean” value ([1]; post-hoc, ITT-Efficacious exposure (n = 69), Anticipation phase, P-value 0.0165 vs placebo)?
Answer: 49.86

Question: And the “SUDS Mean” value ([1]; post-hoc, ITT-Efficacious exposure (n = 69), Performance phase, P-value 0.0202 vs placebo)?
Answer: 54.96

Question: What about the “CGI-C Mean” value ([1]; post-hoc, ITT-Efficacious exposure (n = 69), P-value 0.4343 vs placebo) of the same molecule?
Answer: 3.5

Question: What about the “PGI-C Mean” value ([1]; post-hoc, ITT-Efficacious exposure (n = 69), P-value 0.5525 vs placebo) of the same molecule?
Answer: 3.4

Question: What about the “SUDS Mean” value ([1]; post-hoc, ITT-Efficacious exposure (n = 69), Pre-dose phase (baseline), P-value 0.3368 vs placebo) of the same molecule?
Answer: 35.51

Question: What about the “SUDS Mean” value ([1]; post-hoc, ITT-Efficacious exposure (n = 69), Resting phase, P-value 0.0471 vs placebo) of the same molecule?
Answer: 45.07

Question: What about the “anxiety (SUDS) during the TSST compared to placebo” value ([1]; post-hoc, subjects not wearing a face mask (n=5 on VQW-765, n=6 on placebo), FIG. 9) of the same molecule?
Answer: significantly less anxious

Question: What about the “performance anxiety compared to placebo” value ([1]; post-hoc, subjects with efficacious exposures, p=0.020, FIG. 5A) of the same molecule?
Answer: significantly alleviated

Question: And the “CGI-C, difference to placebo” value ([1]; post-hoc, subjects with efficacious exposures, p=0.325)?
Answer: does not reveal any significant difference

Question: And the “PGI-C, difference to placebo” value ([1]; post-hoc, subjects with efficacious exposures, p=0.376)?
Answer: does not reveal any significant difference

Question: What about the “pattern of HRV change” value ([2]; in vivo) of the same molecule?
Answer: significant decline

Question: What about the “pattern of HRV increase” value ([2]; performance and recovery phases, FIGS. 6C, 6D) of the same molecule?
Answer: steady

Question: What about the Mean plasma concentration ([3]; exposure group PC-1 (n = 7)) of the same molecule?
Answer: 0.25 pmol/mL

Question: What about the Mean plasma concentration ([3]; exposure group PC-2 (n = 7)) of the same molecule?
Answer: 1.18 pmol/mL

Question: What about the Mean plasma concentration ([3]; exposure group PC-3 (n = 8)) of the same molecule?
Answer: 1.58 pmol/mL

Question: What about the Mean plasma concentration ([3]; exposure group PC-4 (n = 8)) of the same molecule?
Answer: 2.06 pmol/mL

Question: And the Mean plasma concentration ([3]; exposure group PC-5 (n = 8))?
Answer: 2.9 pmol/mL

Question: And the Mean plasma concentration ([3]; exposure group PC-6 (n = 8))?
Answer: 3.82 pmol/mL

Question: What about the Mean plasma concentration ([3]; exposure group PC-7 (n = 8)) of the same molecule?
Answer: 5.1 pmol/mL

Question: And the Mean plasma concentration ([3]; exposure group PC-8 (n = 8))?
Answer: 7.04 pmol/mL

Question: What about the Mean plasma concentration ([3]; exposure group PC-9 (n = 8)) of the same molecule?
Answer: 9.79 pmol/mL

Question: And the Mean plasma concentration ([3]; exposure group PC-10 (n = 7))?
Answer: 13.39 pmol/mL

Question: And the “plasma concentrations in the middle 50%, second and third quartiles” value [3]?
Answer: 1.57 to 6.32 pmol/mL
